Data taken from patent US7001897B2, “1-methylcarbapenem derivatives” (Sankyo Company, Limited, priority 2000, dated 2006).
Values after ≈ are worked out from the molar mass of the structure shown. Counter-ions that a name gives are not always drawn.

Experiments:
[1] = system: Haemophilis influenzae strain 9787 (a strain producing β-lactamase); test: In vitro antibacterial activity, agar plate dilution method; type: cell-based; conditions: C: Haemophilis influenzae strain 9787 (β-lactamase producing); agar plate dilution; read-out: Minimum Concentration to Inhibit Growth of the Employed Bacteria C
Experimental: (§1) To assess the antibacterial activities of the compounds, the minimum concentrations (μg/ml) of the compounds to inhibit growth of various pathogenic bacteria were determined by agar plate dilution method. In this Table, the employed bacteria A, B, and C were as follow: • A: Staphylococcus aureus • B: Streptococcus pneumoniae • C: Haemophilis influenzae strain 9787 (a strain producing β-lactamase)

Streptococcus pneumoniae = test: as above; type: cell-based; conditions: B: Streptococcus pneumoniae; agar plate dilution; read-out: Minimum Concentration to Inhibit Growth of the Employed Bacteria B
Experimental: as §1

Staphylococcus aureus = test: as above; type: cell-based; conditions: A: Staphylococcus aureus; agar plate dilution; read-out: Minimum Concentration to Inhibit Growth of the Employed Bacteria A
Experimental: as §1

[2] = Pharmacokinetics, plasma concentration by bioassay after subcutaneous injection; type: in vivo; conditions: mouse, sc, mice (ddY, male), 20 mg/kg subcutaneous
Experimental: The compounds of the present invention compound (20 mg/kg) was subcutaneously injected to mice (n=3, ddY, male, purchased from SLC Japan). The plasma concentration of the compound was determined by a bioassay method at 5, 15, and 30 min, and 1, 1.5, and 2 hr after administration. In the Table, Cmax, T1/2, and AUCall indicate the maximal plasma concentration, half-life in plasma concentration, and area under the concentration-time curve in plasma of the compound, respectively.

| Compound | MIC [1] | MIC (Streptococcus pneumoniae) | MIC (Staphylococcus aureus) | AUC ([2]; read-out: AUCall (area under the concentration-time curve in plasma)) | Cmax ([2]; read-out: Cmax (maximal plasma concentration)) | half-life ([2]; read-out: T1/2 (half-life in plasma concentration) (converted)) |
| --- | --- | --- | --- | --- | --- | --- |
| C[C@@H](O)[C@H]1C(=O)N2C(C(=O)O)=C(SC3CN(c4nc(C(=O)N[C@H]5CCNC5)co4)C3)[C@H](C)[C@H]12 [Example 80, (1R,5S,6S)-2-{1-[4-((3S)-pyrrolidin-3-ylcarbamoyl)-1,3-oxazol-2-yl]azetidin-3-yl}thio-6-[(R)-1-hydroxyethyl]-1-methylcarbapen-2-em-3-carboxylic acid] | 0.39 µg/mL (≈ 0.817 µM) | 0.2 µg/mL (≈ 0.419 µM) | 0.025 µg/mL (≈ 0.0524 µM) |  |  |  |
| C[C@@H](O)[C@H]1C(=O)N2C(C(=O)O)=C(SC3CN(c4nc(CNC(=O)c5ccco5)cs4)C3)[C@H](C)[C@H]12 [Example 72, (1R,5S,6S)-2-(1-{4-[(furan-2-carbonylamino)methyl]-1,3-thiazol-2-yl}azetidin-3-yl)thio-6-[(R)-1-hydroxyethyl]-1-methylcarbapen-2-em-3-carboxylic acid sodium salt] | 0.2 µg/mL | 0.025 µg/mL | ≤ 0.012 µg/mL |  |  |  |
| C[C@@H](O)[C@H]1C(=O)N2C(C(=O)O)=C(SC3CN(c4nc(C(=O)N[C@@H]5CCNC5)co4)C3)[C@H](C)[C@H]12 [Example 81, (1R,5S,6S)-2-{1-[4-((3R)-pyrrolidin-3-ylcarbamoyl)-1,3-oxazol-2-yl]azetidin-3-yl}thio-6-[(R)-1-hydroxyethyl]-1-methylcarbapen-2-em-3-carboxylic acid] | 0.39 µg/mL (≈ 0.817 µM) | 0.2 µg/mL (≈ 0.419 µM) | ≤ 0.012 µg/mL |  |  |  |
| C[C@@H](O)[C@H]1C(=O)N2C(C(=O)O)=C(SC3CN(c4nc(CNC(=O)c5cccs5)cs4)C3)[C@H](C)[C@H]12 [Example 71, (1R,5S,6S)-2-(1-{4-[(Thiophene-2-carbonylamino)methyl]-1,3-thiazol-2-yl}azetidin-3-yl)thio-6-[(R)-1-hydroxyethyl]-1-methylcarbapen-2-em-3-carboxylic acid sodium salt] | 0.39 µg/mL | ≤ 0.012 µg/mL | ≤ 0.012 µg/mL |  |  |  |
| C[C@@H](O)[C@H]1C(=O)N2C(C(=O)[O-])=C(SC3CN(c4nc(C(=O)N5CCOCC5)cs4)C3)[C@H](C)[C@H]12.[Na+] [Example 11, (1R,5S,6S)-2-[1-(4-Morpholinocarbonyl-1,3-thiazol-2-yl)azetidin-3-yl]thio-6-[(R)-1-hydroxyethyl]-1-methylcarbapen-2-em-3-carboxylic acid sodium salt] |  |  |  | 40400 ng·h/mL | 56.6 µg/mL | 19.8 min |

The remaining lines, values ahead:

| MIC [1] | MIC (Streptococcus pneumoniae) | MIC (Staphylococcus aureus) | AUC ([2]; read-out: AUCall (area under the concentration-time curve in plasma)) | Cmax ([2]; read-out: Cmax (maximal plasma concentration)) | half-life ([2]; read-out: T1/2 (half-life in plasma concentration) (converted)) | Compound |
| --- | --- | --- | --- | --- | --- | --- |
| 0.05 µg/mL | 0.025 µg/mL | ≤ 0.012 µg/mL |  |  |  | C[C@@H](O)[C@H]1C(=O)N2C(C(=O)[O-])=C(SC3CN(c4nc(C(=O)N5CCC5)cs4)C3)[C@H](C)[C@H]12.[Na+] [Example 24, (1R,5S,6S)-2-[1-(4-Azetidinocarbonyl-1,3-thiazol-2-yl)azetidin-3-yl]thio-6-[(R)-1-hydroxyethyl]-1-methylcarbapen-2-em-3-carboxylic acid sodium salt] |
| 0.2 µg/mL | 0.2 µg/mL | 0.05 µg/mL |  |  |  | C[C@@H](O)[C@H]1C(=O)N2C(C(=O)[O-])=C(SC3CN(c4nc(C(=O)N(C)C)cs4)C3)[C@H](C)[C@H]12.[Na+] [Example 6, (1R,5S,6S)-2-[1-(4-N,N-Dimethylcarbamoyl-1,3-thiazol-2-yl)azetidin-3-yl]thio-6-[(R)-1-hydroxyethyl]-1-methylcarbapen-2-em-3-carboxylic acid sodium salt] |
| 0.1 µg/mL | 0.2 µg/mL | 0.05 µg/mL |  |  |  | C[C@@H](O)[C@H]1C(=O)N2C(C(=O)[O-])=C(S[C@@H]3CCN(c4nc(C(N)=O)cs4)C3)[C@H](C)[C@H]12.[Na+] [Example 19, (1R,5S,6S)-2-[(3R)-1-(4-Carbamoyl-1,3-thiazol-2-yl)pyrrolidin-3-yl]thio-6-[(R)-1-hydroxyethyl]-1-methylcarbapen-2-em-3-carboxylic acid sodium salt] |
